Measurements reported in ChEMBL document CHEMBL3421607, “Design, synthesis and antibacterial activity of cinnamaldehyde derivatives as inhibitors of the bacterial cell division protein FtsZ” (Eur J Med Chem, 2015).
Converted amounts (≈) assume the structure as drawn.

Experiments:
Format in all cases: functional
Pseudomonas aeruginosa [1] = experiment: microbe, parasite or virus in culture; settings: ATCC 27853, 24 h
Description: Antibacterial activity against penicillin-susceptible Pseudomonas aeruginosa ATCC 27853 after 24 hrs by broth microdilution method

Streptococcus pyogenes = experiment: Antibacterial activity against penicillin-susceptible Streptococcus pyogenes clinical isolates after 24 hrs by broth microdilution method
[2] = tested on: Staphylococcus epidermidis; experiment: Antibacterial activity against penicillin-resistant Staphylococcus epidermidis clinical isolates after 24 hrs by broth microdilution method
Pseudomonas aeruginosa [3] = experiment: microbe, parasite or virus in culture; settings: ATCC 27853, 5 h
Description: Inhibition of cell division in penicillin-susceptible Pseudomonas aeruginosa ATCC 27853 assessed as filamentation after 5 hrs by phase contrast microscopy

Staphylococcus aureus [4] = experiment: microbe, parasite or virus in culture; settings: ATCC 25923, 5 h
Description: Inhibition of cell division in penicillin-susceptible Staphylococcus aureus ATCC 25923 assessed as ballooning after 5 hrs by phase contrast microscopy

Staphylococcus aureus [5] = experiment: microbe, parasite or virus in culture; settings: ATCC 25923, 24 h
Description: Antibacterial activity against penicillin-susceptible Staphylococcus aureus ATCC 25923 after 24 hrs by broth microdilution method

Escherichia coli [6] = experiment: microbe, parasite or virus in culture; settings: ATCC 25922, 24 h
Description: Antibacterial activity against penicillin-susceptible Escherichia coli ATCC 25922 after 24 hrs by broth microdilution method

Staphylococcus aureus [7] = experiment: Antibacterial activity against penicillin-resistant Staphylococcus aureus clinical isolates after 24 hrs by broth microdilution method
Bacillus subtilis [8] = experiment: microbe, parasite or virus in culture; settings: ATCC 9372, 5 h
Description: Inhibition of cell division in penicillin-susceptible Bacillus subtilis ATCC 9372 assessed as filamentation after 5 hrs by phase contrast microscopy

Staphylococcus aureus [9] = experiment: microbe, parasite or virus in culture; settings: ATCC 29213, 24 h
Description: Antibacterial activity against methicillin-resistant Staphylococcus aureus ATCC 29213 after 24 hrs by broth microdilution method

Escherichia coli [10] = experiment: microbe, parasite or virus in culture; settings: ATCC 25922, 5 h
Description: Inhibition of cell division in penicillin-susceptible Escherichia coli ATCC 25922 assessed as filamentation after 5 hrs by phase contrast microscopy

Bacillus subtilis [11] = experiment: microbe, parasite or virus in culture; settings: ATCC 9372, 24 h
Description: Antibacterial activity against penicillin-susceptible Bacillus subtilis ATCC 9372 after 24 hrs by broth microdilution method

Row | Compound | MIC (Pseudomonas aeruginosa [1]) [mg/L] | MIC (Streptococcus pyogenes) [mg/L] | MIC [2] [mg/L] | MIC (Pseudomonas aeruginosa [3]) [mg/L] | MIC (Staphylococcus aureus [4]) [mg/L] | MIC (Staphylococcus aureus [5]) [mg/L] | MIC (Escherichia coli [6]) [mg/L] | MIC (Staphylococcus aureus [7]) [mg/L] | MIC (Bacillus subtilis [8]) [mg/L] | MIC (Staphylococcus aureus [9]) [mg/L] | MIC (Escherichia coli [10]) [mg/L] | MIC (Bacillus subtilis [11]) [mg/L]
1 | COc1cc(/C=C/C(=O)N(C)C)cc(OC)c1OC | 128 (≈ 482 µM) | > 128 | > 128 | 128 (≈ 482 µM) | > 128 | > 128 | 128 (≈ 482 µM) | > 128 | > 128 | > 128 | 128 (≈ 482 µM) | 128 (≈ 482 µM)
2 | O=C(/C=C/c1ccccc1Cl)N1CCN(C(c2ccccc2)c2ccc(Cl)cc2)CC1 (centres undefined) | > 128 | > 128 | > 128 | 128 (≈ 284 µM) | > 128 | > 128 | > 128 | > 128 | > 128 | > 128 | > 128 | > 128
3 | CCCCNC(=O)/C=C/c1ccc(OC)c(OC)c1 | > 128 |  |  | > 128 | > 128 | > 128 | > 128 | > 128 | > 128 | > 128 | > 128 | > 128
4 | COc1ccc(/C=C/C(=O)N(C)C)cc1OC | 128 (≈ 544 µM) | > 128 | > 128 | > 128 | 8 (≈ 34 µM) | 32 (≈ 136 µM) | 128 (≈ 544 µM) | 64 (≈ 272 µM) | > 128 | > 128 | 128 (≈ 544 µM) | 128 (≈ 544 µM)
5 | O=C(/C=C/c1ccc(Cl)cc1Cl)N1CCN(C(c2ccccc2)c2ccc(Cl)cc2)CC1 (centres undefined) | > 128 | > 128 | > 128 | > 128 | 64 (≈ 132 µM) | > 128 | > 128 | > 128 | 64 (≈ 132 µM) | > 128 | > 128 | > 128
6 | COc1ccc(/C=C/C(=O)N2CCOCC2)cc1OC | > 128 | > 128 | > 128 | > 128 | > 128 | > 128 | 128 (≈ 462 µM) | > 128 | > 128 | > 128 | 128 (≈ 462 µM) | 128 (≈ 462 µM)
7 | COc1cc(/C=C/C(=O)N2CCOCC2)cc(OC)c1OC | > 128 | > 128 | > 128 | > 128 | 16 (≈ 52.1 µM) | 64 (≈ 208 µM) | 128 (≈ 416 µM) | > 128 | 128 (≈ 416 µM) | 128 (≈ 416 µM) | 128 (≈ 416 µM) | 128 (≈ 416 µM)
8 | CC(C)NC(=O)/C=C/c1ccc([N+](=O)[O-])cc1 | > 128 |  |  | > 128 | > 128 | > 128 | > 128 | > 128 | > 128 | > 128 | > 128 | > 128
9 | C#CCNC(=O)/C=C/c1ccc([N+](=O)[O-])cc1 | > 128 |  |  | > 128 | > 128 | > 128 | > 128 | > 128 | > 128 | > 128 | > 128 | > 128
10 | COc1cc(/C=C/C(=O)CC(=O)/C=C/c2ccc(O)c(OC)c2)ccc1O [CURCUMIN] | > 128 | > 128 |  |  | > 128 | > 128 | > 128 | > 128 | 16 (≈ 43.4 µM) | > 128 | > 128 | 32 (≈ 86.9 µM)
11 | O=C(/C=C/c1ccc(F)cc1)N1CCOCC1 | 128 (≈ 544 µM) | > 128 | > 128 | 128 (≈ 544 µM) | > 128 | > 128 | 128 (≈ 544 µM) | > 128 | 128 (≈ 544 µM) | > 128 | 128 (≈ 544 µM) | 128 (≈ 544 µM)
12 | CCCCNC(=O)/C=C/c1ccc([N+](=O)[O-])cc1 | > 128 |  |  | > 128 | > 128 | > 128 | > 128 | > 128 | > 128 | > 128 | > 128 | > 128
13 | CCCNC(=O)/C=C/c1ccc([N+](=O)[O-])cc1 | > 128 |  |  | > 128 | > 128 | > 128 | > 128 | > 128 | > 128 | > 128 | > 128 | > 128
14 | COc1ccccc1/C=C/C(=O)N1CCN(C(c2ccccc2)c2ccc(Cl)cc2)CC1 (centres undefined) | > 128 | > 128 | > 128 | > 128 | 64 (≈ 143 µM) | > 128 | > 128 | > 128 | > 128 | > 128 | > 128 | > 128
15 | CCN(CC)C(=O)/C=C/c1ccc(OC)c(OC)c1 | > 128 | > 128 | > 128 | 128 (≈ 486 µM) | 64 (≈ 243 µM) | > 128 | 128 (≈ 486 µM) | > 128 | 128 (≈ 486 µM) | > 128 | 128 (≈ 486 µM) | 128 (≈ 486 µM)
16 | O=C(O)/C=C/c1ccccc1 [CINNAMIC ACID] | > 128 | > 128 | > 128 | > 128 | > 128 | > 128 | > 128 | > 128 | > 128 | > 128 | > 128 | > 128
17 | COc1ccc(/C=C/C(=O)n2c(C)nc3ccccc32)cc1 | 128 (≈ 438 µM) | > 128 | 32 (≈ 109 µM) | > 128 | > 128 | 128 (≈ 438 µM) | 128 (≈ 438 µM) | 64 (≈ 219 µM) | > 128 | 128 (≈ 438 µM) | > 128 | 128 (≈ 438 µM)
18 | CCN(CC)C(=O)/C=C/c1cc(OC)c(OC)c(OC)c1 | 128 (≈ 436 µM) | > 128 | > 128 | 128 (≈ 436 µM) | 32 (≈ 109 µM) | 64 (≈ 218 µM) | 128 (≈ 436 µM) | 64 (≈ 218 µM) | 128 (≈ 436 µM) | > 128 | 128 (≈ 436 µM) | 128 (≈ 436 µM)
19 | CCCCNC(=O)/C=C/c1ccc(C#N)cc1 | > 128 |  |  | > 128 | > 128 | > 128 | > 128 | > 128 | > 128 | > 128 | > 128 | > 128
20 | C#CCNC(=O)/C=C/c1ccc(OC)c(OC)c1 | > 128 |  |  | > 128 | > 128 | > 128 | > 128 | > 128 | > 128 | > 128 | > 128 | > 128
